These results are taken from patent publication US12440497B2, “Compositions and methods for enhancing Wnt signaling for treating cancer” (Massachusetts Institute of Technology, priority 2021, dated 2025).

“And” between values parts separate entries of the source, which are not always exact repeats. Equal entries are not always repeated. “Also recorded” adds a separate entry of the source. Where two headings read alike, the source gives them in different places.

One data set deals with wildtype colon organoids. Description: Wildtype colon organoid growth, resazurin viability assay. The class given is cell-based, Mouse and human. As to conditions: for ranking by on-target vs off-target function in organoids: order: LY2090314, SAR502250, A-1070722, CHIR 99021; for growth of wildtype colon organoids: resazurin assay. As to the method: (§1) Mouse and human organoids were grown in standard organoid culture systems using MATRIGEL® and Advanced DMEM/F12 media with 5% fetal bovine serum, and GLUTAMAX® supplementation. Dose responses of the labeled drugs were applied to the organoid cultures and resazurin viability assays were performed after 4 days of culture. Relative growth is assessed by conversion of resazurin to resorufin and is shown on the y axis.
To further generalize the approach using different GSK3 inhibitors, two other compounds were identified which via GSK3 inhibition, induce Wnt responses in colon organoids. […] Using primary wildtype colon crypts, the capacity of SAR502250 to promote wildtype organoid growth was evaluated using a resazurin metabolic based assay.
For orientation: Alamar Blue is a resazurin reagent that responds to reducing activity.

Data set [1] has as its system organoids that harbor an APC mutation. The data set can be described thus: Growth of APC-mutant colon cancer organoid genotypes, resazurin assay. As to conditions: at all concentrations; also with added KRAS, p53, SMAD4 mutations. Format: cell-based. As to the method:
as §1
Same as FIG. 1, but the genotype of the organoids tested vary instead of being wildtype, they contain the mutations as indicated in the figure description.

In data set [2] the test system is Human colon cancers (colon tumor organoid lines). The data set can be described thus: Human colon tumor organoid dose response, resazurin. The class given is cell-based. The conditions noted are these: every human colon cancer, 4 days of culture. As to the method: Human colon cancers were collected from the operating room at MGH. Colon tumor organoids lines were generated from the resections and maintained in standard colon organoid culture conditions. Dose responses of LY2090314 were applied to the various human colon cancers and resazurin cell number counts were performed after 4 days of culture.

In data set [3] the test system is colon cancer organoids (AKPVT). The data set can be described thus: AKPVT colon cancer organoid growth, resazurin based assay. Format: cell-based, mouse. As to conditions: for inhibition of AKPVT colon cancer organoid growth: single agent. The procedure: FIG. 14 is a two-dimensional dose response of RSPO1 by LY2090314 on inhibiting colon cancer organoid growth (AKPVT), assessed by resazurin based assay.
Viability decrease was assessed using a resazurin based metabolic/proliferation assay.

A further data set deals with colon cancer organoids. The data set can be described thus: LY2090314 together with 5-FU on colon cancer organoids. As to conditions: combination with 5-FU. Format: cell-based. From the text:
LY2090314 was used together with 5-FU on colon cancer organoids. […] The cell killing or tumor inhibition effect of LY2090314 is additive with 5-FU. Thus, LY2090314 can be added to many of the existing chemotherapy regimens for colon cancer with improved outcomes.

The conditions of data set [4]: in DMSO; cited from earlier work.
In a further data set the test system is β-catenin. The conditions noted are these: 20 nM; cited from earlier work.
The next data set relates to GSK3. As to conditions: cited from earlier work.
A further data set deals with melanoma cell lines. The conditions noted are these: cited from earlier work.
For data set [5] the following is noted: rats; cited from earlier work.
The conditions of data set [6]: dogs; cited from earlier work.
The conditions of data set [7]: humans; cited from earlier work.
The conditions of data set [8]: cited from earlier work.
In a further data set the test system is A375 xenograft. The conditions noted are these: 25 mg/kg Q3D, i.v., cited from earlier work.
Data set [9] is described as follows: Body weight of treated mice. The class given is in vivo. The conditions noted are these: high dose, in one week. As to the method:
In humans, the chemotherapy 5-Fluorouracil is a backbone of colon cancer therapy, however, has significant toxic side effects. Mice tolerate a higher dose of 5-Fluorouracil compared to humans on a per weight per day basis. When a high dose of 5-Fluorouracil is administered to mice, they lose 20% of their total weight in one week (FIG. 12A). […] This is in direct contrast to the improved inhibition of tumor burden and treatment effect identified by using the nanoparticle formulation of LY2090314 (FIGS. 5A-5C).

Another data set concerns Wnt signaling. The data set can be described thus: TOP-TdTomato Wnt reporter in wildtype organoids. Format: cell-based.

Regarding `COc1ccc2c(NC(=O)Nc3cccc(C(F)(F)F)n3)ccnc2c1` [A-1070722], the “ranking by on-target vs off-target function in organoids” value in the data set with wildtype colon organoids is reported as “best drugs in decreasing order of efficacy”.
By solubility is commonly meant how much of the substance goes into solution per volume. As usually defined, the half-life is how long it takes for the measured level to halve. Take `O=C1NC(=O)C(c2cnc3ccccn23)=C1c1cn2c3c(cc(F)cc13)CN(C(=O)N1CCCCC1)CC2` [LY2090314]: in the data set with wildtype colon organoids, the “ranking by on-target vs off-target function in organoids” value is reported as “best drugs in decreasing order of efficacy” and the “growth of wildtype colon organoids” value is given as “potently permits the growth; also recorded: general improvement in growth; also recorded: more potent than SAR502250”. Also, the “growth of organoids that harbor an APC mutation” value in [1] is recorded as “inhibited the growth”. Further, in data set [2], the “susceptibility of human colon cancer organoids” value was “showed susceptibility”. Also, the “combination effect with a Wnt agonist on tumor organoid growth” value in [3] (LY2090314 combined with RSPO1) is “synergistic effect”. Moreover, the “cell killing or tumor inhibition effect together with 5-FU” value in the data set on colon cancer organoids is “additive”. In addition, in data set [4], the solubility was 31 mg/mL and 60.48 mM. For the same molecule, in the data set with β-catenin, the “induction of Axin2” value is given as “induction of Axin2” and the “stabilization of β-catenin total protein” value is given as “time-dependent stabilization”. The “fold selectivity relative to a large panel of kinases” value in the data set with GSK3 is listed as “highly selective towards GSK3”. Moreover, the “activity in cell lines resistant to PLX4032” value in the data set on melanoma cell lines is “remains active”. Further, the apoptotic cell death entry in the data set on melanoma cell lines (irrespective of BRAF mutation status) is “potently induces apoptotic cell death”. Also, the half-life result in data set [5] was “approximately 0.4 hours”. Also, the half-life in data set [6] was roughly 42 min. Moreover, in [7], the half-life was 1.8 to 3.4 h. The clearance entry in [8] (approximating hepatic blood flow) is recorded as “high clearance”. Besides, the volume of distribution in data set [8] (in vivo) is 1 to 2 L/kg. In the data set on A375 xenograft, the “Axin2 gene expression in vivo” value is on record as “elevates Axin2 gene expression” and the “single agent activity in the A375 xenograft model” value is “demonstrates single agent activity”. In addition, in the data set on A375 xenograft (with DTIC), the “effect on efficacy of DTIC” value is on record as “enhances the efficacy of DTIC”.
`O=c1[nH]cc(F)c(=O)[nH]1` [5-Fluorouracil]: the “loss of total weight” value in data set [9] turned out to be 20%.
`Cc1c[nH]c(-c2cnc(NCCNc3ccc(C#N)cn3)nc2-c2ccc(Cl)cc2Cl)n1` [CHIR 99021]: the “ranking by on-target vs off-target function in organoids” value in the data set with wildtype colon organoids is listed as “best drugs in decreasing order of efficacy”.
As to `CN1CCN(S(=O)(=O)c2ccc(-c3cnc(N)c(C(=O)Nc4cccnc4)n3)cc2)CC1` [AZD2858], the “growth of wildtype colon organoids” value in the data set with wildtype colon organoids is “capacity to grow normal wildtype organoids; also recorded: clear low nanomolar capacity to support normal colon organoid growth”. In addition, the “Wnt response, TOP-TdTomato reporter activity” value in the data set on Wnt signaling is reported as “promote a Wnt response; also recorded: confirmed to be on target Wnt signaling”.
For the molecule `Cn1c(N2CCO[C@@H](c3ccc(F)cc3)C2)nc(-c2ccncn2)cc1=O` [SAR502250], in the data set on wildtype colon organoids, the “ranking by on-target vs off-target function in organoids” value is on record as “best drugs in decreasing order of efficacy” and the “growth of wildtype colon organoids” value is on record as “capacity to grow normal wildtype organoids; also recorded: can independently permit wildtype organoid growth”. Further, the “inhibition of AKPVT colon cancer organoid growth” value in data set [3] is given as “more modest inhibition than LY2090314”. Further, the “Wnt response, TOP-TdTomato reporter activity” value in the data set with Wnt signaling was “promote a Wnt response”.

B1: RSPO1: concentrated RSPO1, a Wnt agonist (protein, UniProt Q2MKA7 21-263, looked up)
R-spondin-1: SRGIKGKRQRRISAEGSQACAKGCELCSEVNGCLKCSPKLFILLERNDIRQVGVCLPSCPPGYFDARNPDMNKCIKCKIEHCEACFSHNFCTKCKEGLYLHKGRCYPACPEGSSAANGTMECSSPAQCEMSEWSPWGPCSKKQQLCGFRRGSEERTRRVLHAPVGDHAACSDTKETRRCTVRRVPCPEGQKRRKGGQGRRENANRNLARKESKEAGAGSRRRKGQQQQQQQGTVGPLTSAGPA
B1: the “reduction in viability of colon cancer organoids” value in data set [3] (RSPO1 in the presence of low nanomolar LY2090314) is “more than 40%”. Moreover, the “inhibition of AKPVT colon cancer organoid growth” value in data set [3] is listed as “modest effect”.
